The values below come from ChEMBL document CHEMBL1201862, “PubChem BioAssay data set” (2004).

The source made the active and inactive calls. Bounds are passed on as bounds.

Data set [1] can be described thus: A cytotoxicity screen of small molecule inhibitors of the PhoP region in Salmonella typhi identified in the primary screen. [Related pubchem assays: 1850, 1864, 1985 ]. Format: functional.
The target of data set [2] is T1, Replicative DNA helicase DnaB (Mycobacterium tuberculosis, UniProt P9WMR3).
T1 sequence (P9WMR3 whole entry): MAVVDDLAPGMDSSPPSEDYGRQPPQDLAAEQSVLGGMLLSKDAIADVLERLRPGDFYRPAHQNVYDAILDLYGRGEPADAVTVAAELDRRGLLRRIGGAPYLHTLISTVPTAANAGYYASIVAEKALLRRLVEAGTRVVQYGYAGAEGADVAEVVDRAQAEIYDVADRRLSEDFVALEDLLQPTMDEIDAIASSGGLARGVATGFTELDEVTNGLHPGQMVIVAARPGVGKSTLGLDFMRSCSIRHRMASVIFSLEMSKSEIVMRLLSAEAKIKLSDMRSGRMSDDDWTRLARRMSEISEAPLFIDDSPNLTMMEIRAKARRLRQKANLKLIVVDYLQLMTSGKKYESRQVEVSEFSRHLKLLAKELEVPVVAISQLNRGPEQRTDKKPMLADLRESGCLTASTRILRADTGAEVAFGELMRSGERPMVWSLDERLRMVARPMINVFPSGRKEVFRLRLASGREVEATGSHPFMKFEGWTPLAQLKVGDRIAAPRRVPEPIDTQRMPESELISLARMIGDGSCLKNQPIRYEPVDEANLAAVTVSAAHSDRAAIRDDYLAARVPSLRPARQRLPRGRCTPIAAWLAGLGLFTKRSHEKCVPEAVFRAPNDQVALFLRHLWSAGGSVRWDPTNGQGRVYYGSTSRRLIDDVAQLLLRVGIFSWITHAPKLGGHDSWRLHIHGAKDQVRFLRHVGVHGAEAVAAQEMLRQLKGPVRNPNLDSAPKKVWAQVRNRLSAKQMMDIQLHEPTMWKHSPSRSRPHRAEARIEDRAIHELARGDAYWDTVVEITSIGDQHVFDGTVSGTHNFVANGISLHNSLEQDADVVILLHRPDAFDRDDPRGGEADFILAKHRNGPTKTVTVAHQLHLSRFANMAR
Put plainly: DnaB intein splicing inhibitors, dose response, biochemical, cell-free fluorescence (AID 449749). Format: functional.

Another data set deals with T2, Protein RecA (Mycobacterium tuberculosis, UniProt P9WHJ3).
T2 sequence (P9WHJ3 whole entry): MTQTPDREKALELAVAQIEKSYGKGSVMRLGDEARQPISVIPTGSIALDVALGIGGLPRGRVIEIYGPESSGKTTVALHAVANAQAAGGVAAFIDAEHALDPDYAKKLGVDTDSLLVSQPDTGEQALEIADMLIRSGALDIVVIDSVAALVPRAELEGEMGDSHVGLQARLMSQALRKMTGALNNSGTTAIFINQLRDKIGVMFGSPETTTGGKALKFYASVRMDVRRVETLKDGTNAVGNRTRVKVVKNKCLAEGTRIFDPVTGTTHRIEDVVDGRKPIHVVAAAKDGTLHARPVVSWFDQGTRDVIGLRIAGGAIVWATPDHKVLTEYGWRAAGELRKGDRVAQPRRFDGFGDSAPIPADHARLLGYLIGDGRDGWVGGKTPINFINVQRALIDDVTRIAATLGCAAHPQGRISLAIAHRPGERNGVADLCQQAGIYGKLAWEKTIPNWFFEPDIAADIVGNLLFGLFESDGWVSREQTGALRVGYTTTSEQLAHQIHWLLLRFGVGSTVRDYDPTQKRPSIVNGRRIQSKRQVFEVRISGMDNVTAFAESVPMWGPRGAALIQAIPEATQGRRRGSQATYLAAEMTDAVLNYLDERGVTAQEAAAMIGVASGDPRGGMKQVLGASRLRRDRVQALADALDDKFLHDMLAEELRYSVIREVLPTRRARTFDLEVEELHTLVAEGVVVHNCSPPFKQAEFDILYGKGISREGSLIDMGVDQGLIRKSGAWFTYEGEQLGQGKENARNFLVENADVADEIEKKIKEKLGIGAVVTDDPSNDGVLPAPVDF
Put plainly: Fluorescence Cell-Free Homogeneous Dose Retest to Identify Inhibitors of RecA-Intein Splicing Activity. [Related pubchem assays (depositor defined):AID2097, AID2223, AID489010, AID492950]. Format: functional.

The next data set addresses Genome polyprotein (dengue virus type 2, UniProt P29990). Put plainly: flavivirus cap methylation enzyme inhibition – biochemical, confirmation dose response, primary screen (AID 588689). Format: functional.
Data set [3] has as its target T3, High affinity choline transporter 1 (Homo sapiens, UniProt Q9GZV3).
T3 sequence (Q9GZV3 whole entry): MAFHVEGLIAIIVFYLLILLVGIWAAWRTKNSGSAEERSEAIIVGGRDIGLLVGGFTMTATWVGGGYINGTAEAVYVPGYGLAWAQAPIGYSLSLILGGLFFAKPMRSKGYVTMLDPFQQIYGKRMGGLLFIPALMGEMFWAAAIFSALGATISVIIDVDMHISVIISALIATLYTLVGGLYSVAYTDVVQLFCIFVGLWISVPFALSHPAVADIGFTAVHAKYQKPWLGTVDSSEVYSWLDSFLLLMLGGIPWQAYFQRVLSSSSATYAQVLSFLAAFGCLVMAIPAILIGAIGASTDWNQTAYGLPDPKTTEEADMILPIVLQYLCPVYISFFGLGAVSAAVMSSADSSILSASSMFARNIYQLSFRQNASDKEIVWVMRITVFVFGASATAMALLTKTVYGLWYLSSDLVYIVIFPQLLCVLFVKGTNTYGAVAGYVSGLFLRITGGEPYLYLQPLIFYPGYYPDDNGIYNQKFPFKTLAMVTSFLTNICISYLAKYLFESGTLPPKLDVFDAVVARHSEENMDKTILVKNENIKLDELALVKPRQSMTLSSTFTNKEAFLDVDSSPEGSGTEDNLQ
Put plainly: human choline transporter blockers, potency – cell-based, 5-point CRC, membrane potential dye, dose response (AID 504840). Format: functional.

For another data set, the target named is Cytochrome P450 3A4 (Homo sapiens, UniProt P08684).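 Also: CYP3A4 tested as one member of a cytochrome P450 panel screen.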
Sequence of Cytochrome P450 3A4 (P08684 whole entry): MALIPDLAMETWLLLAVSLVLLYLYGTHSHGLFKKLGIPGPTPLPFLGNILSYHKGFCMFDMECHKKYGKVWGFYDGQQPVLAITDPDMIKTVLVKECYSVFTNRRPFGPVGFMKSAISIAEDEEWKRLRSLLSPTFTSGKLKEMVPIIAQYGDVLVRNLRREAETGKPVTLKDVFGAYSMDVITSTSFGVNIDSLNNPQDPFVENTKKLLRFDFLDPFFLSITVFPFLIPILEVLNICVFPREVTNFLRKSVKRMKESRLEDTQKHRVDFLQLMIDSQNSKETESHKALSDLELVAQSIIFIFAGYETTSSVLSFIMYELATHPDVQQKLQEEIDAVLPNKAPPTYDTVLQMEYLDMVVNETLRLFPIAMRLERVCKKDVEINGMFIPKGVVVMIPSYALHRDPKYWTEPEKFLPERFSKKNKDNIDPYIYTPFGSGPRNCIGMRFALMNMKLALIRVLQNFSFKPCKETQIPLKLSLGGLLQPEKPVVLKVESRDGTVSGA
For the next data set, the target named is Cytochrome P450 2C9 (Homo sapiens, UniProt P11712).
Sequence of Cytochrome P450 2C9 (P11712 whole entry): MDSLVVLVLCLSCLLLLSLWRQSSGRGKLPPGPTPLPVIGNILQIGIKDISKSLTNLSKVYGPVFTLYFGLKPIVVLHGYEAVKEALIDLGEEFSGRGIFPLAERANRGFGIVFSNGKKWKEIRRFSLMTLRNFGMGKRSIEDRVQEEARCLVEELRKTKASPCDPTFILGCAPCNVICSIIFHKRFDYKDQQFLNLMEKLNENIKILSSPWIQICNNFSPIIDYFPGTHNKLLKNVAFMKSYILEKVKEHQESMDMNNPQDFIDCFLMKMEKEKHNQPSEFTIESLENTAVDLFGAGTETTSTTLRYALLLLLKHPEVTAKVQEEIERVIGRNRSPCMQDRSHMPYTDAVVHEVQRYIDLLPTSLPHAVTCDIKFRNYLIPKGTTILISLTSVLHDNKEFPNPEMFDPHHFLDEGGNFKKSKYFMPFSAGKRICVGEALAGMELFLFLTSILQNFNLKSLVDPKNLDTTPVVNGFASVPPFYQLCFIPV
The next data set concerns the target T4, Cytochrome P450 1A2 (Homo sapiens, UniProt P05177).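 Also: PubChem cytochrome P450 panel assay, CYP1A2 panel member.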
T4 sequence (P05177 whole entry): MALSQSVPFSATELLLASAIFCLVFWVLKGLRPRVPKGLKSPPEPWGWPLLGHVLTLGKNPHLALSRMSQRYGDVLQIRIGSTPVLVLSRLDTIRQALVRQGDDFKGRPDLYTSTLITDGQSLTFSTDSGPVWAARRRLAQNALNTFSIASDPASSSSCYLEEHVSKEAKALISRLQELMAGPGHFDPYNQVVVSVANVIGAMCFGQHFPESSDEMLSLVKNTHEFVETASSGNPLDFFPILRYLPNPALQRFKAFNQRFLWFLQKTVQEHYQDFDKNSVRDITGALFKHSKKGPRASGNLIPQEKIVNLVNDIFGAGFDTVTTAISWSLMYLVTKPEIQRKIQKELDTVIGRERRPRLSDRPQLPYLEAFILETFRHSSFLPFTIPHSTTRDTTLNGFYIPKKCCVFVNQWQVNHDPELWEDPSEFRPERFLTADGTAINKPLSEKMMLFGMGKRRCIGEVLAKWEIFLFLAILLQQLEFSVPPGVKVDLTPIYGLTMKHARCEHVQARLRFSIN

Data set [4] concerns the target G-protein coupled receptor 55 (Homo sapiens, UniProt Q9Y2T6). Put plainly: inhibition of LPI-stimulated GPR55 beta-arrestin translocation – imaging, U2OS, beta-arrestin-GFP, LPI agonist, primary screen (AID 2013).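 Also: antagonist potency measured as reduced agonist-driven arrestin aggregation.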 Format: functional.
The nature of data set [5]: Trypanosoma cruzi growth suppression in host cells – NIH3T3 host cells, beta-gal luminescence, confirmation (AID 2044).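 Also: intracellular parasites grown in NIH/3T3 mouse fibroblasts as host cells; luminescent beta-galactosidase reporter signal from transgenic T. cruzi replicating inside host cells; inhibitors lower the luminescence signal.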 Format: functional, cell-based.
A short description of data set [6]: NIH3T3 cell viability loss – ATP luminescence, mouse fibroblasts, counter-screen, dose response (AID 2010).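 Also: cells exposed to compound for about 90 hours before reading.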 Format: functional, cell-based. For orientation: The purpose of a counterscreen is to sort out artefacts and off-target activity.
The test system of a further data set is HeLa. Put plainly: ATP-based viability loss in HeLa cells – cell-based, CellTiter-Glo luminescence, cherry-pick samples, cytotoxicity control for MITF activator project, dose response (AID 540259). Format: functional. The settings on record: Homo sapiens.
Data set [7] is described as follows: Luminescence Cell-Based Dose Retest to Confirm Inhibitors of Cancer Stem Cells. [Related pubchem assays (depositor defined):AID2717, AID2721]. Conditions: Homo sapiens. Format: functional.
The next data set addresses Cytochrome P450 2C19 (Homo sapiens, UniProt P33261). Kind of data set: Cytochrome panel assay with activity outcomes. Panel member name: p450-cyp2c19 Compounds with AC50 equal or less than 10 uM are considered active. Format: functional. The settings on record: read-out: AC50.
Data set [8] concerns the target Voltage-dependent T-type calcium channel subunit alpha-1H (Homo sapiens, UniProt O95180). Format: functional.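 Also: channel activity triggered by adding a high calcium stimulation buffer.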

Sequence of G-protein coupled receptor 55 (Q9Y2T6 whole entry): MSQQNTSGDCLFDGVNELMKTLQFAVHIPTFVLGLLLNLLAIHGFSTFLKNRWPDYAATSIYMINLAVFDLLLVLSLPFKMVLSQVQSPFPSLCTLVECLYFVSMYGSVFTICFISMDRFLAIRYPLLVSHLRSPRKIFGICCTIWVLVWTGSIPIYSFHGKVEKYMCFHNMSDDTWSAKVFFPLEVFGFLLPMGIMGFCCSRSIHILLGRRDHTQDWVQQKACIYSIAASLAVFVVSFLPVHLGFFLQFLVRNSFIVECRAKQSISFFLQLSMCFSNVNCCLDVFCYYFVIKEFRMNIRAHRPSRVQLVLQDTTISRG
Sequence of Genome polyprotein (P29990 2492-3391 limits assumed): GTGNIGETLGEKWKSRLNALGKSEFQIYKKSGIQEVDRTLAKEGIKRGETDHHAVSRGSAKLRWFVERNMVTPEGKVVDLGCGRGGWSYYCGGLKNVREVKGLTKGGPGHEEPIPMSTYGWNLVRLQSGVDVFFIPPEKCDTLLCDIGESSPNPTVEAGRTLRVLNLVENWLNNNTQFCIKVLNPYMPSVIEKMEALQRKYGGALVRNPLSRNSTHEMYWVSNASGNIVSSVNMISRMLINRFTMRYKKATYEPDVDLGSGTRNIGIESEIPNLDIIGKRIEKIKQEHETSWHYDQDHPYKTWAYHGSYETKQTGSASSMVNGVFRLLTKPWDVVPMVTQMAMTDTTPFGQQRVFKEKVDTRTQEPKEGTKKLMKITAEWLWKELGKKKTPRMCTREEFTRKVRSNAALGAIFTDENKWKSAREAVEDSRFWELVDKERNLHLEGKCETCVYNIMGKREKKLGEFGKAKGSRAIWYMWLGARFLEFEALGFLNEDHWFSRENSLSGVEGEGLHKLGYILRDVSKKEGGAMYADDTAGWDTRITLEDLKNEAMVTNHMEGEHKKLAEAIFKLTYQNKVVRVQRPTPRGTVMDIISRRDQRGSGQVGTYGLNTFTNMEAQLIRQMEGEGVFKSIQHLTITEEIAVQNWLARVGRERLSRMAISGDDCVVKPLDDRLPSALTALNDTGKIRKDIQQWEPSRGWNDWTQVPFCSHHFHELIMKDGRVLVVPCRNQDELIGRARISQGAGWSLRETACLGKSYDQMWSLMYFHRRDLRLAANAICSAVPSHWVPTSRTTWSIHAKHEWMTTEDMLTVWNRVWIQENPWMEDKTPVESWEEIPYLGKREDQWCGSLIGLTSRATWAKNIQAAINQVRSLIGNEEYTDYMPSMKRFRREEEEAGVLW
Sequence of Voltage-dependent T-type calcium channel subunit alpha-1H (O95180 whole entry): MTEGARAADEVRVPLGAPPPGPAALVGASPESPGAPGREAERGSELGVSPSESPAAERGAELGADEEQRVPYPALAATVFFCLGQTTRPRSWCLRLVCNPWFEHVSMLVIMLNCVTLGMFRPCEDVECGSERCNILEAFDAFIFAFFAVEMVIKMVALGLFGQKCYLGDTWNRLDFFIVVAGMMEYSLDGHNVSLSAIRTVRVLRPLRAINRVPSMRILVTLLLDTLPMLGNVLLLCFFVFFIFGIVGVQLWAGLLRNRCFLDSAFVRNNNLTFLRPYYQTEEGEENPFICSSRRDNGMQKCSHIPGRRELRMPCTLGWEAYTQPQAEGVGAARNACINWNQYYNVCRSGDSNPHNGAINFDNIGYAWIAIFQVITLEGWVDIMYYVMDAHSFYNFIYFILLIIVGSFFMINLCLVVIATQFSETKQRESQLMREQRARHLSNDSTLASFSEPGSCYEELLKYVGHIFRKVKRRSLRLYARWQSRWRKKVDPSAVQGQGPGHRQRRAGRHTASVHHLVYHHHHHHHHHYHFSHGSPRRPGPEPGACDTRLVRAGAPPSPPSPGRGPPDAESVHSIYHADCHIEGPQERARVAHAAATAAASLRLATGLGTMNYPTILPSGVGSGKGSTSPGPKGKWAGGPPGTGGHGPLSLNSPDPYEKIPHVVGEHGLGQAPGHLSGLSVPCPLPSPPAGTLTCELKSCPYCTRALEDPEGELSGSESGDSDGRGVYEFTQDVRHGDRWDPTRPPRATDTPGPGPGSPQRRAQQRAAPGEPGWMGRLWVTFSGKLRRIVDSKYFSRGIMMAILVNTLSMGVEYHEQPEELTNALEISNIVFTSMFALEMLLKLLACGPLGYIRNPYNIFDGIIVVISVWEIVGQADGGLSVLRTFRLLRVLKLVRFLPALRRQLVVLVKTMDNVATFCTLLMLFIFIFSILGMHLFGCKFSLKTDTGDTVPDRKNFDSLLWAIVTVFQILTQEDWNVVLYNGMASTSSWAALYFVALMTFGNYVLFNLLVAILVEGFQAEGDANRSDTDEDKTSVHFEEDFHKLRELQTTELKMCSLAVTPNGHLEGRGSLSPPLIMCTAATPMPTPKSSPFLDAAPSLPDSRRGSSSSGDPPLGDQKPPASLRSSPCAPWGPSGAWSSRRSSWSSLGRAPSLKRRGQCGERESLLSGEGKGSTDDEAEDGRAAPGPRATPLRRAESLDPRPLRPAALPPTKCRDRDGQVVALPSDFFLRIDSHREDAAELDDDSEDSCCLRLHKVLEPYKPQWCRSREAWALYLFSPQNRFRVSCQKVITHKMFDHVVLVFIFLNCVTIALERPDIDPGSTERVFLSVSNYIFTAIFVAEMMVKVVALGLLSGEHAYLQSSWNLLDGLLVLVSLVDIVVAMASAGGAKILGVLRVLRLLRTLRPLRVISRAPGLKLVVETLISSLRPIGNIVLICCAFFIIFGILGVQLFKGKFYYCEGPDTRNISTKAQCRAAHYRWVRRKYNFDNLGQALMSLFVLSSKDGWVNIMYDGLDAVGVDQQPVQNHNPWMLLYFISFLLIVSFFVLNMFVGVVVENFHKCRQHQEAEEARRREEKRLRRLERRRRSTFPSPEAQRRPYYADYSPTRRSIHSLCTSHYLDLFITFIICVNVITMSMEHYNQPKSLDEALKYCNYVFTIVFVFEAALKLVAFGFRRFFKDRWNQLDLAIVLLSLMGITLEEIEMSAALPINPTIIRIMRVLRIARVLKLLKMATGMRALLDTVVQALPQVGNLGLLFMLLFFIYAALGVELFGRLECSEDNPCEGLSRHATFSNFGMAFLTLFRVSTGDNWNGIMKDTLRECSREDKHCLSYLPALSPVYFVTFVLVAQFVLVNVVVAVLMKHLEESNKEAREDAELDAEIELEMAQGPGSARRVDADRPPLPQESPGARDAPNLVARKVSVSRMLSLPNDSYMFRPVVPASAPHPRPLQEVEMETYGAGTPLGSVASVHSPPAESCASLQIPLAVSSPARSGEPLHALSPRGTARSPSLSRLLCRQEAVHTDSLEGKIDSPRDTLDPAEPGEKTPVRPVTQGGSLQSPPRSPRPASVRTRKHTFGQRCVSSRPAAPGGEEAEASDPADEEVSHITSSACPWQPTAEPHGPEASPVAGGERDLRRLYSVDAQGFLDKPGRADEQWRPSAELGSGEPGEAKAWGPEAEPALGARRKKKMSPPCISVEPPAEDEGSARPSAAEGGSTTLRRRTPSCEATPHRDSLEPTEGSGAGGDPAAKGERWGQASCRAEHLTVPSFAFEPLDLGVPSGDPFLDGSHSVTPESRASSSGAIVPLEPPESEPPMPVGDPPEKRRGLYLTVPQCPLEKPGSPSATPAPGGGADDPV
Sequence of Cytochrome P450 2C19 (P33261 whole entry): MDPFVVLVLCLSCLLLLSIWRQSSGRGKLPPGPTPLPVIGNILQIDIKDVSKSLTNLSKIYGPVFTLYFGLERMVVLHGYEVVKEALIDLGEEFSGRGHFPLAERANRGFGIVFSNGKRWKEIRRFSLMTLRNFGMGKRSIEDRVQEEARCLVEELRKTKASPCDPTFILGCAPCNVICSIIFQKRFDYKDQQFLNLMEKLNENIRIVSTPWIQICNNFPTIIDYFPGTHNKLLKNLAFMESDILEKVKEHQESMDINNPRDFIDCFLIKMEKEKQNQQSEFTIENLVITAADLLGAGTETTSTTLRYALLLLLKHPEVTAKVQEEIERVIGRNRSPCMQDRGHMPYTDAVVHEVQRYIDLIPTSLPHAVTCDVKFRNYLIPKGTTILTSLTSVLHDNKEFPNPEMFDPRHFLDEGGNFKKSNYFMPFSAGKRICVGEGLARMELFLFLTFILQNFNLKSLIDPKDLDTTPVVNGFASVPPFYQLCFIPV

One may read the EC50 as the concentration that produces a half-maximal response. One may read the AC50 as the midpoint of the concentration-response curve, whichever way the signal moves. A word on the IC50: it is the point on the concentration scale where inhibition reaches its midpoint. For the molecule `Cc1[nH]n(-c2ccccc2)c(=O)c1C(c1cccc([N+](=O)[O-])c1O)c1c(C)[nH]n(-c2ccccc2)c1=O`, the EC50 in [1] is > 50 µM (active); at Protein RecA, 0.931 µM (active). Also, the AC50 in data set [2] was 1.15 µM (active). Moreover, on Genome polyprotein, the half-maximal inhibitory concentration (IC50) is 31.6 µM (active).
Turning to `Cc1ccc(-n2cc(CN3CCN(Cc4nccn4C)CC3)c(-c3ccc(F)cc3)n2)cc1`, the IC50 in [3] was 10.1 µM (active).
Still for that read-out and setting: with `CCCC(=O)Nc1cccc(NC(=O)c2ccc([N+](=O)[O-])cc2Cl)c1` the figure was 15.1 µM (active).
For `CN(C)c1ncc2nc(-c3cc(F)cc(F)c3)c(=O)n(Cc3ccc(F)cc3)c2n1`, the half-maximal activity concentration (AC50) on Cytochrome P450 3A4 is 31.6 µM (inconclusive); at Cytochrome P450 2C9 it was “inconclusive”.
Take `O=C(NCCCN1CCOCC1)c1ccc2c(=O)n(-c3ccc(F)c(Cl)c3)c(=S)[nH]c2c1`: the IC50 in data set [3] was 11.5 µM (active).
Take `Cn1c(=O)oc2cc(S(=O)(=O)NCCC(=O)N3CC=C(c4ccccc4)CC3)ccc21`: the concentration at half-maximal activity (AC50) on Cytochrome P450 1A2 was 31.6 µM (inconclusive); at Cytochrome P450 2C9 it was “inconclusive”.
Regarding `O=C(c1ccccc1)N1N=C(c2cccs2)CC1c1ccccc1O` (stereo unspecified), in [4], the half-maximal inhibitory concentration (IC50) is 2.72 µM (active).
On to `CC(C)(C)n1nnnc1C(c1cccs1)N(Cc1cccnc1)Cc1ccccc1Cl` (stereo unspecified), for which the IC50 in data set [4] is 3.57 µM (active). Moreover, the EC50 in data set [5] was 0.684 µM (active); in data set [6], 15.1 µM (active); at Protein RecA, 59 µM (active). Further, in data set [2], the AC50 was > 120 µM (inactive).
As for `CNC(=O)c1ccc(-c2cc3onc(-c4ccccc4)c3c(=O)n2C)cc1`, the AC50 in the data set with HeLa was 44.9 µM (active).
As to `CC1=NC(C)(C)Cc2cc(C)c(C)cc21`, the IC50 in data set [3] was 13.2 µM (active).
Consider `N#Cc1c(/N=C/N2CCCC2)oc(-c2ccccc2)c1-c1ccccc1`, for which the concentration for half-maximal inhibition (IC50) in data set [4] is 0.558 µM (active). In addition, the AC50 in [7] was 1.67 µM (active).
Turning to `Cc1ccc(Nc2cc(C)nc(-c3ccccc3)n2)cc1`, in the data set with HeLa, the concentration at half-maximal activity (AC50) is 36.7 µM (active).
In the case of `CSc1nnc(-c2sccc2OCc2ccccc2)n1C`, the IC50 in [4] was 2.71 µM (active).
With `O=C(NC1CC1)c1sc2cc(Cl)ccc2c1Cl`, in the data set on HeLa, the AC50 is 69.3 µM (active).
`Cc1cc(O)c2cc(Cl)ccc2n1`: on Cytochrome P450 2C9, the AC50 entry is on record as “inconclusive”.
Turning to `CCOCCCN1C(=O)CN(C2CCCCCC2)C(=O)C1c1ccc(OC)cc1` (stereo unspecified), the AC50 at Cytochrome P450 2C19 was 25.1 µM (inconclusive); at Cytochrome P450 2C9 it was “inconclusive”.
For the molecule `COc1ccc2c(c1)CCc1c(C(=O)NCC(C)C)noc1-2`, the AC50 with HeLa is 55.1 µM (active).
`COc1ccc(OC)c(NC(=O)CSCc2cnn(-c3ccccc3)c2-n2cccc2)c1`: the EC50 in [8] was 4.18 µM (active). In addition, the AC50 at Cytochrome P450 1A2 was 25.1 µM (inconclusive); on Cytochrome P450 2C9, “inconclusive”.
